Laboratory results taken from ChEMBL document CHEMBL3046411, “Synthesis and antioxidant studies of novel N-substituted benzyl/phenyl-2-(3,4-dimethyl-5,5-dioxidopyrazolo[4,3-c][1,2]benzothiazin-2(4H)-yl)acetamides” (Med Chem Res, 2013).

Experiments:
[1] = Antioxidant activity assessed as superoxide anion radical scavenging activity at 1 mM; assay type: functional
[2] = system: Radical scavenging activity; assay: Antioxidant activity assessed as DPPH radical scavenging activity at 0.5 mM after 30 min; assay type: functional

Structure (SMILES)	Activity [1]	Activity [2]
Cc1c2c(nn1CC(=O)Nc1ccccc1Cl)-c1ccccc1S(=O)(=O)N2C	61%	21.8%
Cc1c2c(nn1CC(=O)NCc1cccc(Br)c1)-c1ccccc1S(=O)(=O)N2C	32.5%	14.1%
Cc1ccc(CNC(=O)Cn2nc3c(c2C)N(C)S(=O)(=O)c2ccccc2-3)cc1	57.8%	17.9%
Cc1c2c(nn1CC(=O)Nc1ccc(Cl)cc1)-c1ccccc1S(=O)(=O)N2C	55.6%	25.4%
COc1cccc(NC(=O)Cn2nc3c(c2C)N(C)S(=O)(=O)c2ccccc2-3)c1	47.4%	20.2%
Cc1c2c(nn1CC(=O)Nc1ccc(F)cc1)-c1ccccc1S(=O)(=O)N2C	44.1%	22.1%
Cc1c2c(nn1CC(=O)Nc1ccccc1F)-c1ccccc1S(=O)(=O)N2C	47.7%	23.1%
Cc1c2c(nn1CC(=O)Nc1ccccc1Br)-c1ccccc1S(=O)(=O)N2C	79.1%	27.6%
COc1ccc(NC(=O)Cn2nc3c(c2C)N(C)S(=O)(=O)c2ccccc2-3)c(OC)c1	78.3%	39.8%
Cc1c2c(nn1CC(=O)NCc1ccc(F)cc1)-c1ccccc1S(=O)(=O)N2C	42.3%	15.8%
COc1ccccc1CNC(=O)Cn1nc2c(c1C)N(C)S(=O)(=O)c1ccccc1-2	38.8%	25.6%
Cc1ccccc1CNC(=O)Cn1nc2c(c1C)N(C)S(=O)(=O)c1ccccc1-2	81.5%	15.2%
Cc1c2c(nn1CC(=O)NCc1ccccc1Br)-c1ccccc1S(=O)(=O)N2C	64%	21.1%
COc1ccc(CNC(=O)Cn2nc3c(c2C)N(C)S(=O)(=O)c2ccccc2-3)c(OC)c1	58.3%	27.3%
Cc1c2c(nn1CC(=O)Nc1ccccc1)-c1ccccc1S(=O)(=O)N2C	28.6%	18.3%
COc1ccc(CNC(=O)Cn2nc3c(c2C)N(C)S(=O)(=O)c2ccccc2-3)cc1	33.1%	23.7%
Cc1c2c(nn1CC(=O)NCc1ccccc1F)-c1ccccc1S(=O)(=O)N2C	48.5%	20.2%
COc1ccccc1NC(=O)Cn1nc2c(c1C)N(C)S(=O)(=O)c1ccccc1-2	53.8%	26.9%
Cc1c2c(nn1CC(=O)NCc1ccc(Cl)cc1)-c1ccccc1S(=O)(=O)N2C	47.2%	16.7%
Cc1c2c(nn1CC(=O)Nc1cccc(Br)c1)-c1ccccc1S(=O)(=O)N2C	47.1%	26.1%
Cc1c2c(nn1CC(=O)NCc1ccccc1Cl)-c1ccccc1S(=O)(=O)N2C	52.5%	17.1%
COc1ccc(O)c(C(C)(C)C)c1.COc1ccc(O)cc1C(C)(C)C		92.6%
CCCOC(=O)c1cc(O)c(O)c(O)c1	90.8%	
COc1cccc(CNC(=O)Cn2nc3c(c2C)N(C)S(=O)(=O)c2ccccc2-3)c1	25.9%	16.2%
